Reference: patent publication US8163909B2, “Substituted hydroxyethyl amine compounds as beta-secretase modulators and methods of use” (Amgen Inc., priority 2007, dated 2012)
Like-named read-outs stand apart in the source and are kept apart here.

Columns and labels:
[1] = molecular target: Beta Secretase enzyme (BACE) (Homo sapiens, UniProt P56817); assay: In vitro enzymatic BACE FRET (fluorescence resonance energy transfer) assay; format: biochemical;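 also: fluorescence read after 1 h with 50 nM quenched peptide substrate spanning the BACE cleavage site, in pH 4.2 acetate buffer containing 10% DMSO and nonionic detergent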
Chain of Beta Secretase enzyme (BACE) (P56817 46-501): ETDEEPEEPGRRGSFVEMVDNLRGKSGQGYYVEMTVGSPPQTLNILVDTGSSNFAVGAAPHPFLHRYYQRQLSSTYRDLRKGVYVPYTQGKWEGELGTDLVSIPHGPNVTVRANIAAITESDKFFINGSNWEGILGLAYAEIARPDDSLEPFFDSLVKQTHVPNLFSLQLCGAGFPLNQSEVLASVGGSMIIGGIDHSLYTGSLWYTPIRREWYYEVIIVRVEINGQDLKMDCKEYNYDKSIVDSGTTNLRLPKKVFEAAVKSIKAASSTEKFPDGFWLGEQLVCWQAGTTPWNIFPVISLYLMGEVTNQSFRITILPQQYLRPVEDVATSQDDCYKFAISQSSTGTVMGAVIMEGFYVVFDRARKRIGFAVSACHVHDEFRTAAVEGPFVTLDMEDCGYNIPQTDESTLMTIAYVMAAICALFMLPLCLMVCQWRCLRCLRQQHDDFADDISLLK

[2] = system: Aβ40 in conditioned medium of cells stably expressing Amyloid Precursor Protein (APP); assay: In vitro BACE cell-based assay (Aβ40 in conditioned medium, sandwich ELISA); conditions: Homo sapiens;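 also: compounds added as a dilution series, secreted peptide quantified by europium time-resolved fluorescence readout, potency fitted from percent of control versus compound concentration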
CYP3A4 (CYP3A) = CYP3A4 (CYP3A) (Homo sapiens, UniProt P08684); assay: in vitro; conditions: microsomes, pH 7.4;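 also: inhibition of CYP3A-mediated 1-hydroxymidazolam formation after 10 min incubation with NADPH, quantified by HPLC MS relative to metabolite produced without test compound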
Chain of CYP3A4 (CYP3A) (P08684 2-503): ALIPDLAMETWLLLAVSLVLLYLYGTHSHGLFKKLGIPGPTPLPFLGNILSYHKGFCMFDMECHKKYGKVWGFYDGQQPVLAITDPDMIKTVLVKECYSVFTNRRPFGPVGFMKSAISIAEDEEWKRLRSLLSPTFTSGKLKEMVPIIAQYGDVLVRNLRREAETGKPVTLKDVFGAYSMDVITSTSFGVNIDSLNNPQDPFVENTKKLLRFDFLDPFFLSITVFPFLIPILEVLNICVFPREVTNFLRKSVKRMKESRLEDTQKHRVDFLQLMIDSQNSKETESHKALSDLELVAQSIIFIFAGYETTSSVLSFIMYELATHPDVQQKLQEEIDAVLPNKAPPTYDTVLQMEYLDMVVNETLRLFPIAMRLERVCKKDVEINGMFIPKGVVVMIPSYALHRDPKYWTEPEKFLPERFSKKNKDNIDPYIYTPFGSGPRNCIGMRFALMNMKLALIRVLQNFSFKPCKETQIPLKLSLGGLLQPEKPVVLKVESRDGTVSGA

[3] = Microsomal stability assay, rat liver microsomes;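 also: rat liver microsomes (0.25 mg/mL) with about 1 µM compound plus 1 mM NADPH, pH 7.4, 37 °C for 30 min, parent left measured by LC-MS/MS against 0 min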
[4] = Microsomal stability assay, human liver microsomes;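 also: pooled human liver microsomes at 0.25 mg/mL with 1 µM compound and NADPH at 37 °C, pH 7.4, for 30 min, unchanged parent quantified by LC-MS/MS against the 0 min sample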
CYP2D6 = CYP2D6 (Homo sapiens, UniProt P10635); assay: CYP2D6 inhibition assay (bufuralol, pooled human liver microsomes)
Chain of CYP2D6 (P10635 whole entry): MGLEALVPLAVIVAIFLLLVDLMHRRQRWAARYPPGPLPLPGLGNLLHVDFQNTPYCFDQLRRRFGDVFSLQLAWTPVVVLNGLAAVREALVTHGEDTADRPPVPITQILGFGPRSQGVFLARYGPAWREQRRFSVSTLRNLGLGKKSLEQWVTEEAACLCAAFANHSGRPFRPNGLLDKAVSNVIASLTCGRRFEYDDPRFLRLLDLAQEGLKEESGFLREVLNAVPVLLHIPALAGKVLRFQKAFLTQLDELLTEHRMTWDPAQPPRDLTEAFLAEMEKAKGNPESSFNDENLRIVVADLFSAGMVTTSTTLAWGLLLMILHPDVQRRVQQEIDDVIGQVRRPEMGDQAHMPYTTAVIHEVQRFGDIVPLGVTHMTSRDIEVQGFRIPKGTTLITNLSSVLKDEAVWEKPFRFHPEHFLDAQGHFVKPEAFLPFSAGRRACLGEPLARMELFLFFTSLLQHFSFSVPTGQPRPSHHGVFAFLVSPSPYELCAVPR

[5] = BACE enzyme assay, IC50's in uM, read-out: BACE1 FRET assay
[6] = HEK293, cell-based assay, HEK cells, IC50's in uM, read-out: HEK cell assay
[7] = 2D6 IC50, CYP enzyme inhibition
[8] = BACE enzyme assay IC50, read-out: BACE1 FRET assay
[9] = HEK293, HEK cell-based assay IC50, read-out: HEK cell assay
[10] = 2D6 IC50 (uM), CYP2D6 inhibition
[11] = BACE enzyme assay, read-out: BACE1 FRET assay
[12] = HEK293, HEK cells, read-out: HEK cell assay
[13] = 2D6 IC50 (uM), CYP enzyme inhibition
[14] = read-out: BACE1 FRET assay (IC50)
[15] = HEK293, HEK cells, read-out: HEK cell assay (IC50)

Structure (SMILES) | IC50 (CYP3A4 (CYP3A)) | RLM ([3]; rat liver microsomal data) | HLM ([4]; human liver microsomal data) | RLM ([3]; rat liver microsomes) | HLM ([4]; human liver microsomes) | IC50 [1, 11] | IC50 [2, 12] | IC50 (CYP2D6; [13]) | further results
COCC(=O)N[C@@H](Cc1cccc(-n2cccn2)c1)[C@H](O)CN[C@H]1CC2(CCC2)Oc2ncc(CC(C)(C)C)cc21 [compound 854] | 600 nM | 210 µL/min/mg | 515 µL/min/mg | – | – | – | – | – | IC50 [1, 5]: 0.007 µM; IC50 [2, 6]: 0.007 µM; IC50 (CYP2D6; [7]): 2.5 µM
Cc1ccccc1CN1CCO[C@@H](C(=O)N[C@@H](Cc2ccc(F)cc2)[C@H](O)CN[C@H]2CC3(CCC3)Oc3ncc(CC(C)(C)C)cc32)C1 [compound 692] | 200 nM | – | – | 590 µL/min/mg | 706 µL/min/mg | – | – | – | IC50 [1, 8]: 0.013 µM; IC50 [2, 9]: 0.024 µM; IC50 (CYP2D6; [10]): 5.1 µM
CC(=O)C(C)(C)C(=O)N[C@@H](Cc1cccc(F)c1)[C@H](O)CN[C@H]1CC2(CCC2)Oc2ncc(CC(C)(C)C)cc21 [compound 467] | 400 nM | 292 µL/min/mg | 399 µL/min/mg | – | – | – | – | – | IC50 ([1]; Table 2, read-out: BACE1 FRET assay): 0.063 µM; IC50 ([2]; HEK293, Table 2, HEK cells, read-out: HEK cell assay): 0.209 µM; IC50 (CYP2D6; [7]): 7.3 µM
CO[C@H](C)C(=O)N[C@@H](Cc1cccc(F)c1)[C@H](O)CN[C@H]1CC2(CCC2)Oc2c(-c3cscn3)cc(CC(C)C)cc21 [compound 524] | 500 nM | 472 µL/min/mg | 492 µL/min/mg | – | – | 0.008 µM | 0.065 µM | 7.5 µM | –
COCC(=O)N[C@@H](Cc1ccc(F)c(-c2cscn2)c1)[C@H](O)CN[C@H]1CC2(CCC2)Oc2ncc(CC(C)(C)C)cc21 [compound 683, N-((1S,2R)-3-(((4′S)-6′-(2,2-dimethylpropyl)-3′,4′-dihydrospiro[cyclobutane-1,2′-pyrano[2,3-b]pyridin]-4′-yl)amino)-1-(4-fluoro-3-(1,3-thiazol-4-yl)benzyl)-2-hydroxypropyl)-2-methoxyacetamide] | 200 nM | – | – | 61 µL/min/mg | 102 µL/min/mg | – | – | – | IC50 [1, 8]: 0.009 µM; IC50 [2, 9]: 0.031 µM; IC50 (CYP2D6; [10]): 2.3 µM
CC(C)OCC(=O)N[C@@H](Cc1ccc(F)cc1)[C@H](O)CN[C@H]1CC2(CCC2)Oc2ncc(CC(C)(C)C)cc21 [compound 565] | 600 nM | 829 µL/min/mg | 921 µL/min/mg | – | – | 0.049 µM | 0.267 µM | 23.8 µM | –
CO[C@H](C)C(=O)N[C@@H](Cc1ccccc1)[C@H](O)CN[C@H]1CC2(CCC2)Oc2c1cc(CC(C)C)cc2-n1ccnc1 [compound 547] | 100 nM | 260 µL/min/mg | 53 µL/min/mg | – | – | 0.042 µM | 0.073 µM | 4.4 µM | –
COCC(=O)N[C@@H](Cc1cccc(-c2nccs2)c1)[C@H](O)CN[C@H]1CC2(CCC2)Oc2ncc(C3CCCC3)cc21 [compound 886] | 200 nM | 64 µL/min/mg | 55 µL/min/mg | – | – | – | – | – | IC50 [1, 5]: 0.143 µM; IC50 [2, 6]: 0.136 µM; IC50 (CYP2D6; [7]): 0.3 µM
COCC(=O)N[C@@H](Cc1cc(F)cc(F)c1)[C@H](O)CN[C@H]1CC2(CCC2)Oc2c1cc(CC(C)(C)C)nc2-c1ccc2c(c1)OCO2 [compound 629] | 1200 nM | – | – | 209 µL/min/mg | 171 µL/min/mg | – | – | – | IC50 [1, 14]: 0.009 µM; IC50 [2, 15]: 0.121 µM; IC50 (CYP2D6; 2D6 IC50, CYP2D6 inhibition): ≥ 27 µM
COCC(=O)N[C@@H](Cc1cc(F)cc(F)c1)[C@H](O)CN[C@H]1CC2(CCC2)Oc2c1cc(CC(C)(C)C)nc2-n1ccnc1 [compound 494] | 200 nM | 63 µL/min/mg | 30 µL/min/mg | – | – | 0.02 µM | 0.072 µM | 1.2 µM | –
CC(=O)N[C@@H](Cc1cc(F)cc(F)c1)[C@H](O)CN[C@H]1CC2(CCC2)Oc2c1cc(CC(C)(C)C)nc2-c1cscn1 [compound 510] | 1100 nM | 358 µL/min/mg | 380 µL/min/mg | – | – | 0.008 µM | 0.017 µM | 10.3 µM | –
COCC(=O)N[C@@H](Cc1cc(F)cc(F)c1)[C@H](O)CN[C@H]1CC2(CCC2)Oc2c1cc(CC(C)(C)C)nc2Nc1ccncc1 [compound 571] | 100 nM | 193 µL/min/mg | 142 µL/min/mg | – | – | 0.053 µM | 0.003 µM | 2.3 µM | –
CC(=O)N[C@@H](Cc1ccc(F)c(-c2ccncc2)c1)[C@H](O)CN[C@H]1CC2(CCC2)Oc2ncc(CC(C)(C)C)cc21 [compound 602] | 160 nM | – | – | 78 µL/min/mg | 124 µL/min/mg | – | – | – | IC50 [1, 14]: 0.023 µM; IC50 [2, 15]: 0.018 µM; IC50 (CYP2D6; 2D6 IC50, CYP2D6 inhibition): 0.4 µM
COCC(=O)N[C@@H](Cc1cc(F)cc(-c2nccs2)c1)[C@H](O)CN[C@H]1CC2(CCC2)Oc2ncc(CC(C)(C)F)cc21 [Example 724, N-((1S,2R)-3-(((4′S)-6′-(2-fluoro-2-methylpropyl)-3′,4′-dihydrospiro[cyclobutane-1,2′-pyrano[2,3-b]pyridin]-4′-yl)amino)-1-(3-fluoro-5-(1,3-thiazol-2-yl)benzyl)-2-hydroxypropyl)-2-methoxyacetamide] | 200 nM | – | – | 38 µL/min/mg | 45 µL/min/mg | – | – | – | IC50 [1, 8]: 0.006 µM; IC50 [2, 9]: 0.009 µM; IC50 (CYP2D6; [10]): 0.9 µM
CN1CCO[C@@H](C(=O)N[C@@H](Cc2ccc(F)cc2)[C@H](O)CN[C@H]2CC3(CCC3)Oc3ncc(CC(C)(C)C)cc32)C1 [compound 739] | 800 nM | – | – | 239 µL/min/mg | 266 µL/min/mg | – | – | – | IC50 [1, 8]: 0.064 µM; IC50 [2, 9]: 0.008 µM; IC50 (CYP2D6; [10]): 6.7 µM
COCC(=O)N[C@@H](Cc1cc(-c2nccs2)cc(-c2nccs2)c1)[C@H](O)CN[C@H]1CC2(CCC2)Oc2ncc(CC(C)(C)C)cc21 [compound 839] | 100 nM | 57 µL/min/mg | 62 µL/min/mg | – | – | – | – | 0.4 µM | IC50 [1, 5]: 0.258 µM; IC50 ([2]; HEK293, HEK cell-based assay, IC50's in uM, read-out: HEK cell assay): 0.477 µM
COCC(=O)N[C@@H](Cc1cc(F)cc(F)c1)[C@H](O)CN[C@H]1CC(C)(C)Oc2c1cc(Br)c1c2OCO1 [compound 746] | 200 nM | – | – | 144 µL/min/mg | 150 µL/min/mg | – | – | – | IC50 [1, 8]: 0.275 µM; IC50 [2, 9]: 0.185 µM; IC50 (CYP2D6; [10]): 3.8 µM
CO[C@H](C)C(=O)N[C@@H](Cc1cc(F)cc(F)c1)[C@H](O)CN[C@H]1CC2(CCC2)Oc2c1cc(C1CC1)cc2-n1ccnc1 [compound 707] | ≤ 30 nM | – | – | 39 µL/min/mg | 14 µL/min/mg | – | – | – | IC50 [1, 8]: 0.114 µM; IC50 [2, 9]: 0.028 µM; IC50 (CYP2D6; [10]): 0.6 µM
CC(C)Cc1cnc2c(c1)[C@@H](NC[C@@H](O)[C@H](Cc1ccc3c(c1)OCO3)NC(=O)[C@@H]1CCCO1)CC1(CCC1)O2 [compound 548] | 300 nM | 184 µL/min/mg | 57 µL/min/mg | – | – | 0.074 µM | 0.623 µM | 3.7 µM | –
COCC(=O)N[C@@H](Cc1cccc(F)c1)[C@H](O)CN[C@H]1CC2(CCC2)Oc2c(-c3ccncc3F)cc(CC(C)(C)C)cc21 [compound 668] | 100 nM | – | – | 197 µL/min/mg | 118 µL/min/mg | – | – | – | IC50 [1, 14]: 0.004 µM; IC50 [2, 15]: 0.018 µM; IC50 (CYP2D6; 2D6 IC50, CYP2D6 inhibition): 2.9 µM
CC(C)(C)Cc1cnc2c(c1)[C@@H](NC[C@@H](O)[C@H](Cc1ccc(F)cc1)NC(=O)[C@@H]1CCO1)CC1(CCC1)O2 [Example 441, (2S)—N-((1S,2R)-3-(((4′S)-6′-(2,2-dimethylpropyl)-3′,4′-dihydrospiro[cyclobutane-1,2′-pyrano[2,3-b]pyridin]-4′-yl)amino)-1-((4-fluorophenyl)methyl)-2-hydroxypropyl)-2-oxetanecarboxamide] | 1100 nM | 124 µL/min/mg | 416 µL/min/mg | – | – | 0.012 µM | 0.012 µM | ≥ 27 µM | –
COCC(=O)N[C@@H](Cc1ccc(F)cc1)[C@H](O)CN[C@H]1CC2(CCC2)Oc2c(-c3ccncc3)cc(CC(C)(C)C)cc21 [compound 562] | 100 nM | 60 µL/min/mg | 24 µL/min/mg | – | – | 0.027 µM | 0.021 µM | 3.6 µM | –
CO[C@H](C)C(=O)N[C@@H](Cc1ccc2c(c1)OCO2)[C@H](O)CN[C@H]1CC2(CCC2)Oc2ccc(C[C@@H](C)F)cc21 [compound 556] | 300 nM | 353 µL/min/mg | 211 µL/min/mg | – | – | 0.718 µM | 0.446 µM | 1 µM | –
CCCc1cnc2c(c1)[C@@H](NC[C@@H](O)[C@H](Cc1cc(F)cc(-c3nccs3)c1)NC(=O)[C@@H](C)OC)CC1(CCC1)O2 [compound 853] | 400 nM | 101 µL/min/mg | 93 µL/min/mg | – | – | – | – | – | IC50 [1, 5]: 0.043 µM; IC50 [2, 6]: 0.075 µM; IC50 (CYP2D6; [7]): 0.7 µM
COCC(=O)N[C@@H](Cc1cc(Br)cc(Br)c1)[C@H](O)CN[C@H]1CC2(CCC2)Oc2ncc(CC(C)(C)C)cc21 [compound 892] | 100 nM | 274 µL/min/mg | 399 µL/min/mg | – | – | – | – | – | IC50 [1, 5]: 0.07 µM; IC50 [2, 6]: 0.009 µM; IC50 (CYP2D6; [7]): 3.9 µM
